Measured values published in patent US20250205231A1, “Tear Film Stability” (priority 2012, published 2025).
Values joined by “and” are separate entries in the source; they are usually repeats but may differ in a detail not shown here. Identical values can stand only once. “Also recorded” adds a separate entry of the source.

Legend:
[1] = tested on: patients with dry eye and blepharitis; test: Tear film break-up time (BUT), topical statin pilot study; assay type: in vivo, human; details: 1 month topical therapy
Excerpt: (§1) Aim: To investigate topical statin as a novel therapy for dry eyes associated with blepharitis. Methods: 10 patients with symptoms and signs of dry eye and blepharitis were enrolled in a prospective pilot study of topical statin therapy over 1 month. The primary outcome measure was corneal fluorescein staining. Results: An Improvement in corneal fluorescein staining by a 3 points from baseline to completion of the trial at week four was found in 6 of 10 patients in the study eye. Subjective dry eye symptoms improved (p=0.005). […] Conclusions: Topical statins are a suitable therapy for patients with dry eye and blepharitis. They can be easily manufactured and could be widely available.
(§2) 10 patients were enrolled and completed the study.
(§3) Patients with • 1) Any symptoms of dry eyes and blepharitis • 2) Any signs of dry eyes: • BUT (tear break up time)≤5 sec, or • Punctate epithelial erosions in at least one eye • 3) Any signs of blepharitis: • Anterior lid margin—grease, skin scales, collarets, frank ulcers, loss of lashes and inflammation • Posterior lid margin—cheesy secretions, blocked meibomian glands >⅓, telangiectasia, meibomitis, notched lid margin and chalaza • 4) Male or female patients greater or equal to 18 years of age • 5) Patients able to give written informed consent and comply with study protocol […]
(§4) Patients were evaluated at weeks 1, 2, 3 and 4. […]

[2] = tested on: patients with dry eye and blepharitis; test: Safety evaluation: intraocular pressure (IOP); details: baseline to study completion
[3] = tested on: patients with dry eye and blepharitis; test: Schirmer I test, topical statin pilot study; assay type: in vivo, human; details: baseline to week four
Excerpt: as §1, §2
(§5) Patients with • 1) Any symptoms of dry eyes and blepharitis • 2) Any signs of dry eyes: • BUT (tear break up time)≤5 sec, or • Punctate epithelial erosions in at least one eye • 3) Any signs of blepharitis: • Anterior lid margin—grease, skin scales, collarets, frank ulcers, loss of lashes and inflammation • Posterior lid margin—cheesy secretions, blocked meibomian glands >⅓, telangiectasia, meibomitis, notched lid margin and chalaza • 4) Male or female patients greater or equal to 18 years of age • 5) Patients able to give written informed consent and comply with study protocol
as §4

[4] = tested on: patients with dry eye and blepharitis; test: Concomitant use of topical lubricants, topical statin pilot study; assay type: in vivo, human
Excerpt: as §2
(§6) • 1) Subjective • Total symptoms score • Face score (Goto et al 2002) • 2) Objective • a) Tear film break-up time (BUT) • b) Corneal fluorescein staining • b) Blepharitis score • c) Bulbar conjunctival injection • d) Concomitant use of topical therapy
Prior to the study, 6 patients were using topical lubricants an average of 6 times a day (range 2 to 8. SD 2.3); 4 of these patients were using preservative-free lubricants. At study completion, 2 patients had ceased their topical lubrication, and 3 of the remaining 4 patients had reduced the frequency of lubricant use to an average of 4 times a day (range 3 to […]). […] One patient had had punctal occlusion in the study eye. 4 patients were performing lid massage with hot compresses and 4 were using a cotton bud for lid hygiene, 1 with bicarbonate of soda solution and 2 with shampoo. Patients were asked not to change these regimes during the study period.

[5] = tested on: patients with dry eye and blepharitis; test: Safety evaluation: best-corrected visual acuity (BCVA); details: baseline to study completion
[6] = tested on: patients with dry eye and blepharitis; test: Corneal fluorescein staining (National Eye Institute scoring 0-15), topical statin pilot study; assay type: in vivo, human
Excerpt: as §1, §2, §5, §6
(§7) Patients were evaluated at weeks 1, 2, 3 and 4. However, the primary endpoint was at trial completion (4 weeks). A p value <0.050 was considered statistically significant.

[7] = tested on: patients with dry eye and blepharitis; test: Subjective dry eye symptom scores (global and individual), topical statin pilot study; assay type: in vivo, human; set-up: Global Symptom score: scale not given here
Excerpt: as §1, §2, §5, §6, §7

[8] = tested on: patients with dry eye and blepharitis; test: Blepharitis score, topical statin pilot study; assay type: in vivo, human; set-up: Blepharitis score: scale not given here
Excerpt: as §1, §2, §3, §4

[9] = tested on: patients with dry eye and blepharitis; test: Face score (facial analogue scale, Goto et al 2002), topical statin pilot study; assay type: in vivo, human; set-up: Facescale score: scale not given here
Excerpt: as §1, §2, §3, §4

[10] = tested on: patients with dry eye and blepharitis; test: Safety evaluation: cataract and adverse reactions; assay type: in vivo, human
Excerpt: as §2

[11] = 1 month, study eye, individual patients 1-10, listed as topical statin

SMILES: CC(C)c1c(C(=O)Nc2ccccc2)c(-c2ccccc2)c(-c2ccc(F)cc2)n1CC[C@@H](O)C[C@@H](O)CC(=O)O [Atorvastatin]
- Effect on tear film break-up time (in words) [1]: significantly improved
- Change in IOP, study eye (in words) [2]: no change
- Change in Schirmer I test result (in words) [3]: no significant change
- Patients who had ceased their topical lubrication at study completion ([4]; of 6 patients using topical lubricants prior to the study): 2 patients
- Patients who had reduced the frequency of lubricant use ([4]; of the remaining 4 patients, at study completion): 3 patients
- Average frequency of lubricant use at study completion ([4]; range 3 to 6, SD 0.6, prior to the study average 6 times a day): 4 times a day
- Change in BCVA, fellow eye (in words) [5]: no significant change
- Change in BCVA, study eye (in words) [5]: no significant change
- Corneal fluorescein score ([6]; 1 month, NEI scale 0-15, individual patients 1-10, 50 microM, 8 times a day, listed as topical statin): 1 (2×) and 0 (4×) and 2 (3×) and 4
- Patients with improvement in corneal fluorescein staining by three or more points ([6]; of 10 patients, baseline to week four): 6 patients
- Patients with corneal fluorescein staining score improved by more than one point ([6]; of the 10 patients): 9 patients
- Effect on subjective dry eye symptoms (in words) ([7]; 1 month topical therapy): improved
- Global Symptom score [7, 11]: 5 and 0 (5×) and 3 and 4 and 1 and 2
- Change in blurred vision score (in words) ([7]; enrolment to week four): no significant change
- Change in discomfort score (in words) ([7]; enrolment to week four): significant improvement
- Change in dryness score (in words) ([7]; enrolment to week four): significant improvement
- Change in foreign body sensation score (in words) ([7]; enrolment to week four): significant improvement
- Change in photophobia score (in words) ([7]; enrolment to week four): no significant change
- Change in redness score (in words) ([7]; enrolment to week four): significant improvement
- Change in watering score (in words) ([7]; enrolment to week four): significant improvement
- Effect on blepharitis score (in words) ([8]; 1 month topical therapy): significantly improved
- Blepharitis score [8, 11]: 7 (2×) and 5 (3×) and 4 (3×) and 2 (2×)
- Facescale score ([9]; 1 month, facial analogue scale, individual patients 1-10, listed as topical statin): 4 (3×) and 1 and 3 (2×) and 5 (3×) and 2
- Change in face score (in words) ([9]; enrolment to week four): significant improvement
- Adverse events / side-effects ([10]; 1 month topical therapy, both eyes, 10 patients, listed as topical statin): no serious or irreversible side-effects; also recorded: No adverse events were reported
- Cataract development ([10]; baseline to study completion): no patient developed cataract
